# From patent US4745202A, “Aerocyanidin-antibiotic” (E. R. Squibb & Sons, Inc., priority 1987, dated 1988)
# How the values were obtained:
# Escherichia coli = assay: MIC by agar dilution technique; type: cell-based; details: 37° C., 18 hours
# Experimental: (§1) The minimum inhibitory concentration (MIC) of aerocavin was determined by an agar dilution technique. The test organisms were prepared from frozen stocks and diluted to give a final level of 10^7 CFU/ml (CFU is colony forming units). Aerocavin was dissolved in the appropriate diluent at a concentration of 1,000 μg/ml. Two fold dilutions were made in Yeast Beef Broth (Difco), resulting in a range from 1,000 μg/ml to 0.5 μg/ml. A 1.5 ml sample of each dilution was placed into individual petri dishes to which 13.5 ml of K-10 agar* was added. The final drug concentration in the agar ranged from 100 μg/ml to 0.05 μg/ml. Organism growth control plates containing agar only were prepared and inoculated before and after the test plates. The organisms were applied to the surface of each plate with the Denley Multipoint Inoculator (which delivers approximately 0.001 ml of each organism) resulting in a final inoculum level of 10^4 CFU on the agar surface.
# (§2) The plates were incubated at 37° C. for 18 hours and the MIC's then determined. The MIC is the lowest concentration of compound inhibiting growth of the organism.
# (§3) Using the methodology described for the determination of the biological activity of aerocavin, the biological activity of aerocyanidin was determined.
# Pseudomonas aeruginosa = assay: MIC by agar dilution technique; type: cell-based; details: 37° C., 18 hours
# Experimental: as §1, §2, §3
# Staphylococcus aureus = assay: MIC by agar dilution technique; type: cell-based; details: 37° C., 18 hours
# Experimental: as §1, §2, §3
# [1] = system: Acinetobacter calcoaceticus; assay: MIC by agar dilution technique; type: cell-based; details: SC8333, SC No. 8333, 10^4 CFU, 37° C., 18 hours
# Experimental: as §1, with “surface. |*K-10 agar The plates were incubated at 37° C. for 18 hours and the MIC's then determined. The MIC is the lowest concentration of compound inhibiting growth of the organism.” for “surface.”
# [2] = system: Staphylococcus epidermidis; assay: MIC by agar dilution technique; type: cell-based; details: 37° C., 18 hours
# Experimental: as §1, with “surface. |*K-10 agar The plates were incubated at 37° C. for 18 hours and the MIC's then determined. The MIC is the lowest concentration of compound inhibiting growth of the organism.” for “surface.”
# gram positive organisms = assay: activity against gram positive organisms; type: cell-based
# solubility = type: physicochemical
# Enterobacter cloacae = assay: MIC by agar dilution technique; type: cell-based; details: SC8236, SC No. 8236, 10^4 CFU, 37° C., 18 hours
# Experimental: as §1, §2, §3
# Klebsiella aerogenes = assay: MIC by agar dilution technique; type: cell-based; details: SC10440, SC No. 10440, 10^4 CFU, 37° C., 18 hours
# Experimental: as §1, §2, §3
# Klebsiella pneumoniae = assay: MIC by agar dilution technique; type: cell-based; details: SC9527, SC No. 9527, 10^4 CFU, 37° C., 18 hours
# Experimental: as §1, §2, §3
# Micrococcus luteus = assay: MIC by agar dilution technique; type: cell-based; details: SC2495, SC No. 2495, 10^4 CFU, 37° C., 18 hours
# Experimental: as §1, §2, §3
# Proteus mirabilis = assay: MIC by agar dilution technique; type: cell-based; details: SC3855, SC No. 3855, 10^4 CFU, 37° C., 18 hours
# Experimental: as §1, §2, §3
# Salmonella typhosa = assay: MIC by agar dilution technique; type: cell-based; details: Salmonella enterica, SC1195 / TYPHOSA, 18 h
# Experimental: as §1, §2, §3
# Shigella sonnei = assay: MIC by agar dilution technique; type: cell-based; details: SC8449, SC No. 8449, 10^4 CFU, 37° C., 18 hours
# Experimental: as §1, §2, §3
# Streptococcus agalactiae = assay: MIC by agar dilution technique; type: cell-based; details: SC9287, SC No. 9287, 10^4 CFU, 37° C., 18 hours
# Experimental: as §1, §2, §3
# Streptococcus faecalis = assay: MIC by agar dilution technique; type: cell-based; details: Enterococcus faecalis, SC9011; SC No. 9011; 10^4 CFU, 37° C., 18 hours
# Experimental: as §1, §2, §3
# stability on storage = type: physicochemical; details: solid state, compared with ethyl acetate solution at 4° C.
structure (smiles),measurement,setting,value
"CCCCCCCCC[C@@H](O)C[C@H]1C[C@H](O)C/C(C)=C/C/C=C/C/C(CC(=O)O)=C\C(=O)O1 (relative stereo) [aerocavin, [3E,6E,9E,12α,14β(R*)]-12-hydroxy-14-(2-hydroxyundecyl)-10-methyl-2-oxooxacyclotetradeca-3,6,9-triene-4-acetic acid]",MIC,"Escherichia coli; SC8294, SC No. 8294, 10^4 CFU",100 µg/mL
same,MIC,"Escherichia coli; SC10857, SC No. 10857, 10^4 CFU",12.5 µg/mL
same,MIC,"Pseudomonas aeruginosa; SC9545, SC No. 9545, 10^4 CFU",25 µg/mL
same,MIC,"Staphylococcus aureus; SC1276, SC No. 1276, 10^4 CFU",6.3 µg/mL
same,MIC,"Staphylococcus aureus; SC2399, SC No. 2399, 10^4 CFU",6.3 µg/mL
same,MIC,"Staphylococcus aureus; SC9593, SC No. 9593 (Penicillin^R), 10^4 CFU",6.3 µg/mL
same,MIC,"Staphylococcus aureus; SC10016, SC No. 10016 (Tetracycline^R), 10^4 CFU",3.1 µg/mL
same,MIC,"Staphylococcus aureus; SC10820, SC No. 10820 (Erythromycin^R), 10^4 CFU",3.1 µg/mL
same,MIC,[1],12.5 µg/mL
same,MIC,"[2]; SC9052, SC No. 9052, 10^4 CFU",6.3 µg/mL
same,MIC,"[2]; SC10547, SC No. 10547 (Penicillin^R), 10^4 CFU",3.1 µg/mL
same,activity against gram positive organisms,gram positive organisms,has activity against gram positive organisms
same,solubility,solubility; in heptane,less soluble
same,solubility,"solubility; in methanol, acetone, ethyl acetate",substantially soluble
same,solubility,solubility; in water,insoluble
"[C-]#[N+][C@]1(C)O[C@@H]1[C@H](O)CCCCCCCCCC(=O)O (relative stereo) [aerocyanidin, [2α(R*),3α]-κ-hydroxy-3-isocyano-3-methyloxiraneundecanoic acid]",MIC,Enterobacter cloacae,50 µg/mL
same,MIC,"Escherichia coli; SC8294, SC No. 8294, 10^4 CFU",> 50 µg/mL
same,MIC,"Escherichia coli; SC10896, SC No. 10896, 10^4 CFU",25 µg/mL
same,MIC,"Escherichia coli; SC10909, SC No. 10909, 10^4 CFU",1.6 µg/mL
same,MIC,Klebsiella aerogenes,> 50 µg/mL
same,MIC,Klebsiella pneumoniae,> 50 µg/mL
same,MIC,Micrococcus luteus,0.4 µg/mL
same,MIC,Proteus mirabilis,1.6 µg/mL
same,MIC,"Pseudomonas aeruginosa; SC8329, SC No. 8329, 10^4 CFU",> 50 µg/mL
same,MIC,Salmonella typhosa,25 µg/mL
same,MIC,Shigella sonnei,25 µg/mL
same,MIC,"Staphylococcus aureus; SC1276, SC No. 1276, 10^4 CFU",< 0.05 µg/mL
same,MIC,"Staphylococcus aureus; SC2399, SC No. 2399, 10^4 CFU",< 0.05 µg/mL
same,MIC,"Staphylococcus aureus; SC2400, SC No. 2400, 10^4 CFU",< 0.05 µg/mL
same,MIC,Streptococcus agalactiae,< 0.05 µg/mL
same,MIC,Streptococcus faecalis,0.2 µg/mL
same,activity against gram positive organisms,gram positive organisms,has activity against gram positive organisms
same,stability,stability on storage,less stable in the solid state
